# Assay results reported in PMC11642016 (International Journal of Molecular Sciences, 2024).
# Where “and” joins values, the source holds several entries; their conditions need not be identical. Identical values can stand only once. Like-named read-outs stand apart in the source and are kept apart here.
# Tests used:
# [1] = CellTiter-Glo luminescent cell viability assay, primary fibroblasts; conditions: human, primary skin fibroblasts (non-tumorous), Primer fibroblast Cell viability (% of controll), 72 h, dose–response, individual replicates
# [2] = test system: non-tumorous primary fibroblast cells; experiment: as above; conditions: for Primer fibroblast Cell viability (% of controll): dose–response, individual replicates; for IC50: Homo sapiens, Fibroblast
# Fadu cells = experiment: CellTiter-Glo luminescent cell viability assay, Fadu
# PANC-1 cells = experiment: CellTiter-Glo luminescent cell viability assay, PANC-1
# [3] = 0.7 μM, 72 h, dose–response, individual replicates
# [4] = 1 μM, 72 h, dose–response, individual replicates
# [5] = 2.3 μM, 72 h, dose–response, individual replicates
# [6] = 3.4 μM, 72 h, dose–response, individual replicates
# [7] = 5.1 μM, 72 h, dose–response, individual replicates
# [8] = 7.7 μM, 72 h, dose–response, individual replicates
# [9] = 17.3 μM, 72 h, dose–response, individual replicates
# [10] = 26 μM, 72 h, dose–response, individual replicates
compound,measurement,setting,value
CNCC#Cc1cccc(CN2C(=O)C3=C(CCN(Cc4ccc(-n5cc(-c6ccc(F)cc6)nn5)cc4)C3)N3CCN=C23)c1 [43b],"viability at 72 h, 0.7 µM",[1]; 0.7 μM,96%
same,"viability at 72 h, 1 µM",[1]; 1 μM,102%
same,"viability at 72 h, 1.5 µM",[1]; 1.5 μM,107%
same,"viability at 72 h, 2.3 µM",[1]; 2.3 μM,105%
same,"viability at 72 h, 5.1 µM",[1]; 5.1 μM,0%
same,"viability at 72 h, 7.7 µM",[1]; 7.7 μM,0%
same,"viability at 72 h, 17.3 µM",[1]; 17.3 μM,0%
same,"viability at 72 h, 26 µM",[1]; 26 μM,0%
same,Primer fibroblast Cell viability (% of controll),"[2]; 0.7 μM, 72 h",105 % of controll and 104 % of controll
same,Primer fibroblast Cell viability (% of controll),"[2]; 1 μM, 72 h",113 % of controll and 103 % of controll
same,Primer fibroblast Cell viability (% of controll),"[2]; 1.5 μM, 72 h",105 % of controll and 97 % of controll
same,Primer fibroblast Cell viability (% of controll),"[2]; 2.3 μM, 72 h",99 % of controll
same,Primer fibroblast Cell viability (% of controll),"[2]; 3.4 μM, 72 h",89 % of controll and 54 % of controll and 50 % of controll
same,Primer fibroblast Cell viability (% of controll),"[2]; 5.1 μM, 72 h",0 % of controll
same,Primer fibroblast Cell viability (% of controll),"[2]; 7.7 μM, 72 h",0 % of controll
same,Primer fibroblast Cell viability (% of controll),"[2]; 17.3 μM, 72 h",0 % of controll
same,Primer fibroblast Cell viability (% of controll),"[2]; 26 μM, 72 h",0 % of controll
same,IC50,"[2]; 72 h, read-out: IC50 Value ± SEM Primary Fibroblast, 72 h treatment, best-fit values, n = 3",3.5 ± 0.17 µM
same,IC50,"[2]; read-out: Primary fibroblast IC50 values, Mean, mean of independently fitted replicate IC50 values (Supplement S.6), ONC201 value mathematically estimated from inflection point",3.46 µM
same,Fadu Cell viability (% of controll),Fadu cells; [3],108 % of controll and 104 % of controll
same,Fadu Cell viability (% of controll),Fadu cells; [4],106 % of controll and 101 % of controll
same,Fadu Cell viability (% of controll),Fadu cells; [5],96 % of controll and 91 % of controll
same,Fadu Cell viability (% of controll),Fadu cells; [6],58 % of controll and 46 % of controll and 27 % of controll
same,Fadu Cell viability (% of controll),Fadu cells; [7],1 % of controll and 0 % of controll
same,Fadu Cell viability (% of controll),Fadu cells; [8],0 % of controll
same,Fadu Cell viability (% of controll),Fadu cells; [9],0 % of controll
same,Fadu Cell viability (% of controll),Fadu cells; [10],0 % of controll
same,viability at 0.7 µM,"Fadu cells; Homo sapiens, FaDu, 72 h, read-out: Fadu Cell viability (% of controll), 0.7 μM, 72 h, dose–response, individual replicates",108%
same,viability at 1 µM,"Fadu cells; Homo sapiens, FaDu, 72 h, read-out: Fadu Cell viability (% of controll), 1 μM, 72 h, dose–response, individual replicates",102%
same,viability at 1.5 µM,"Fadu cells; Homo sapiens, FaDu, 72 h, read-out: Fadu Cell viability (% of controll), 1.5 μM, 72 h, dose–response, individual replicates",105%
same,viability at 2.3 µM,"Fadu cells; Homo sapiens, FaDu, 72 h, read-out: Fadu Cell viability (% of controll), 2.3 μM, 72 h, dose–response, individual replicates",91%
same,viability at 7.7 µM,"Fadu cells; Homo sapiens, FaDu, 72 h, read-out: Fadu Cell viability (% of controll), 7.7 μM, 72 h, dose–response, individual replicates",0%
same,viability at 17.3 µM,"Fadu cells; Homo sapiens, FaDu, 72 h, read-out: Fadu Cell viability (% of controll), 17.3 μM, 72 h, dose–response, individual replicates",0%
same,viability at 26 µM,"Fadu cells; Homo sapiens, FaDu, 72 h, read-out: Fadu Cell viability (% of controll), 26 μM, 72 h, dose–response, individual replicates",0%
same,IC50,"Fadu cells; Homo sapiens, FaDu, 72 h, read-out: IC50 Value ± SEM Fadu, 72 h treatment, best-fit values, n = 3",3.2 ± 0.06 µM
same,IC50,"Fadu cells; Homo sapiens, FaDu, read-out: Fadu IC50 values, Mean, mean of independently fitted replicate IC50 values (Supplement S.6)",3.25 µM
same,Selectivity Index (SI) Fibroblast/Fadu,Fadu cells; ratio of mean best-fit IC50 for primary fibroblasts and best-fit IC50 for Fadu,1.1
same,PANC-1 Cell viability (% of controll),PANC-1 cells; [3],103 % of controll and 101 % of controll
same,PANC-1 Cell viability (% of controll),PANC-1 cells; [4],107 % of controll
same,PANC-1 Cell viability (% of controll),"PANC-1 cells; 1.5 μM, 72 h, dose–response, individual replicates",99 % of controll and 110 % of controll
same,PANC-1 Cell viability (% of controll),PANC-1 cells; [5],102 % of controll and 103 % of controll
same,PANC-1 Cell viability (% of controll),PANC-1 cells; [6],10 % of controll and 7 % of controll
same,PANC-1 Cell viability (% of controll),PANC-1 cells; [7],0 % of controll
same,PANC-1 Cell viability (% of controll),PANC-1 cells; [8],0 % of controll
same,PANC-1 Cell viability (% of controll),PANC-1 cells; [9],0 % of controll
same,PANC-1 Cell viability (% of controll),PANC-1 cells; [10],0 % of controll
same,IC50,"PANC-1 cells; Homo sapiens, PANC-1, 72 h, read-out: IC50 Value ± SEM PANC-1, 72 h treatment, best-fit values, n = 3",3.1 ± 0.17 µM
same,viability at 0.7 µM,"PANC-1 cells; Homo sapiens, PANC-1, 72 h, read-out: PANC-1 Cell viability (% of controll), 0.7 μM, 72 h, dose–response, individual replicates",104%
same,viability at 1 µM,"PANC-1 cells; Homo sapiens, PANC-1, 72 h, read-out: PANC-1 Cell viability (% of controll), 1 μM, 72 h, dose–response, individual replicates",104%
same,viability at 1.5 µM,"PANC-1 cells; Homo sapiens, PANC-1, 72 h, read-out: PANC-1 Cell viability (% of controll), 1.5 μM, 72 h, dose–response, individual replicates",104%
same,viability at 2.3 µM,"PANC-1 cells; Homo sapiens, PANC-1, 72 h, read-out: PANC-1 Cell viability (% of controll), 2.3 μM, 72 h, dose–response, individual replicates",106%
same,viability at 3.4 µM,"PANC-1 cells; Homo sapiens, PANC-1, 72 h, read-out: PANC-1 Cell viability (% of controll), 3.4 μM, 72 h, dose–response, individual replicates",13%
same,viability at 5.1 µM,"PANC-1 cells; Homo sapiens, PANC-1, 72 h, read-out: PANC-1 Cell viability (% of controll), 5.1 μM, 72 h, dose–response, individual replicates",0%
same,viability at 7.7 µM,"PANC-1 cells; Homo sapiens, PANC-1, 72 h, read-out: PANC-1 Cell viability (% of controll), 7.7 μM, 72 h, dose–response, individual replicates",0%
same,viability at 17.3 µM,"PANC-1 cells; Homo sapiens, PANC-1, 72 h, read-out: PANC-1 Cell viability (% of controll), 17.3 μM, 72 h, dose–response, individual replicates",0%
same,viability at 26 µM,"PANC-1 cells; Homo sapiens, PANC-1, 72 h, read-out: PANC-1 Cell viability (% of controll), 26 μM, 72 h, dose–response, individual replicates",0%
same,IC50,"PANC-1 cells; Homo sapiens, PANC-1, read-out: PANC-1 IC50 values, Mean, mean of independently fitted replicate IC50 values (Supplement S.6)",3.06 µM
same,Selectivity Index (SI) Fibroblast/PANC-1,PANC-1 cells; ratio of mean best-fit IC50 for primary fibroblasts and best-fit IC50 for PANC-1,1.1
